From patent US11912693B2, “Compounds for modulating S1P1 activity and methods of using the same” (TREVENA, INC., priority 2017, dated 2024)

How the values were obtained:
[1] = target: T1, human sphingosine-1-phosphate receptor 1 (S1P1) (Homo sapiens (Human), UniProt P21453); test: β-Arrestin2 recruitment assay (PathHunter), S1P1 CHO-K1 cells; type: cell-based; details: for hS1P1 B-arrestin2 pEC50: β-arrestin2 recruitment, S1P1 CHO-K1 cells; for Emax: CHO-K1, efficacy (SPAN) normalized to fingolimod, read-out: hS1P1 B-arrestin2 SPAN
In short: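 Enzyme-fragment complementation read-out: agonist-driven β-arrestin2 binding to ProLink-tagged human S1P1 in stable CHO-K1 cells restores β-galactosidase, measured 1 h at room temperature after a 60 min 37° C. compound incubation. Potency as pEC50, efficacy relative to fingolimod (SPAN).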
Target sequence in this assay (P21453 whole entry, looked up, the tested form may be a part): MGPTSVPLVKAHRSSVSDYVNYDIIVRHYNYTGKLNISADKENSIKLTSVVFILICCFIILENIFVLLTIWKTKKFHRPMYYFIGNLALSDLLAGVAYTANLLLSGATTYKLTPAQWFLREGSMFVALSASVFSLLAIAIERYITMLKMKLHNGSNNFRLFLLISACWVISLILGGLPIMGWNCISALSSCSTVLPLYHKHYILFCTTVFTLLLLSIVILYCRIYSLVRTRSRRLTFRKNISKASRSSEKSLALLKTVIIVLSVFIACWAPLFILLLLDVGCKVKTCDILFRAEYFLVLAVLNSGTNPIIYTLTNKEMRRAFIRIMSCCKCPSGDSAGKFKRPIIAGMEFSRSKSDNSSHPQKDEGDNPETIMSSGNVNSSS
Target sequence in this assay (P32121 whole entry partner, looked up, the tested form may be a part): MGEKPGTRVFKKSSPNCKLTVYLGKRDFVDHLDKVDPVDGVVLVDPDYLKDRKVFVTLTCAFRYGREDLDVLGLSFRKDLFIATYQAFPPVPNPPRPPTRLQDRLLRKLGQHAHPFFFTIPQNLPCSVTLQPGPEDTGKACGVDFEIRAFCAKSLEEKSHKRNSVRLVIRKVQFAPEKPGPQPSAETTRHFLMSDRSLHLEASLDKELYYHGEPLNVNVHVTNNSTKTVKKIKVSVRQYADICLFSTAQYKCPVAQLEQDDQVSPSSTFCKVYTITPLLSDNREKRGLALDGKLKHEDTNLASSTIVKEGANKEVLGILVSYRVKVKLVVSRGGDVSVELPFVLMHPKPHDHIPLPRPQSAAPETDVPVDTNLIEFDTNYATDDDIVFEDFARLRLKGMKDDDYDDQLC

[2] = target: T1, human sphingosine-1-phosphate receptor 1 (S1P1); test: Inhibition of cAMP production (HTRF cAMP HiRange), S1P1 CHO-K1 cells; type: cell-based; details: for hS1P1 cAMP pEC50: inhibition of cAMP production, S1P1 CHO-K1 cells; for Emax: CHO-K1, efficacy (SPAN) normalized to fingolimod, read-out: hS1P1 cAMP SPAN
In short: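 CHO-K1 cells stably co-expressing human S1P1 (C-terminal Prolink tag) and EA-β-arrestin2 were grown in AssayComplete Media 6 at 37° C. and 5% CO2, plated, and incubated overnight. Agonist-driven inhibition of intracellular cAMP was read by TR-FRET with the HTRF cAMP HiRange kit on a PheraStar reader. Potency is pEC50, and efficacy (SPAN) is normalized to fingolimod.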
Target sequence in this assay (P21453 whole entry, looked up, the tested form may be a part): as the sequence (P21453 whole entry, looked up, the tested form may be a part) above

| hS1P1 B-arrestin2 pEC50 [1] | hS1P1 cAMP pEC50 [2] | Emax [1] [%] | Emax [2] [%] | Compound |
| --- | --- | --- | --- | --- |
| <5 | >6.5 |  |  | CCC1(CC)CC(=O)c2cc(-c3nc(-c4ccc[nH]4)no3)ccc2O1 [Compound 464, 6-(3-(1H-pyrrol-2-yl)-1,2,4-oxadiazol-5-yl)-2,2-diethylchroman-4-one] |
| <5 | <6.5 | < 75 | < 75 | O=C1CC2(CCC(F)(F)CC2)Oc2ccc(-c3nc(-c4cccnc4)no3)cc21 [Compound 36, 4′,4′-difluoro-6-[3-(pyridin-3-yl)-1,2,4-oxadiazol-5-yl]-3,4-dihydrospiro[1-benzopyran-2,1′-cyclohexane]-4-one] |
| <5 | <6.5 |  |  | COc1cccc(-c2nc(-c3ccc4[nH]ccc4c3)ns2)c1 [Compound 364, 5-[5-(3-methoxyphenyl)-1,2,4-thiadiazol-3-yl]-1H-indole] |
| <5 | <6.5 |  |  | C=CCn1nnc2cc(-c3nc(-c4ccccc4)no3)ccc21 [Compound 270, 5-(3-phenyl-1,2,4-oxadiazol-5-yl)-1-(prop-2-en-1-yl)-1H-1,2,3-benzotriazole] |
| >5 | >6.5 | > 75 | > 75 | CC(C)n1nnc2cc(-c3nc(-c4ccccc4Br)co3)ccc21 [Compound 183, 5-[4-(2-bromophenyl)-1,3-oxazol-2-yl]-1-(propan-2-yl)-1H-1,2,3-benzotriazole] |
| <5 | >6.5 |  |  | CCC1(CC)CC(=O)c2cc(-c3nc(-c4cccc(O)c4)no3)ccc2O1 [Compound 227, 2,2-diethyl-6-[3-(3-hydroxyphenyl)-1,2,4-oxadiazol-5-yl]chroman-4-one] |
| <5 | <6.5 |  |  | CCC1(CC)CC(=O)c2cc(-c3nc(-c4cncc(OC)c4)no3)ccc2O1 [Compound 311, 2,2-diethyl-6-(3-(5-methoxypyridin-3-yl)-1,2,4-oxadiazol-5-yl)chroman-4-one] |
| <5 | <6.5 | > 75 | > 75 | CC(C)(O)Cn1nnc2cc(-c3nc(-c4ccncc4C(F)(F)F)no3)ccc21 [Compound 460, 2-methyl-1-(5-{3-[3-(trifluoromethyl)pyridin-4-yl]-1,2,4-oxadiazol-5-yl}-1H-1,2,3-benzotriazol-1-yl)propan-2-ol] |
| <5 | <6.5 | < 75 | < 75 | COc1ccc(-c2noc(-c3ccc4c(c3)nnn4C3CCCC3)n2)c2ccccc12 [Compound 91, 1-cyclopentyl-5-[3-(4-methoxynaphthalen-1-yl)-1,2,4-oxadiazol-5-yl]-1H-1,2,3-benzotriazole] |
| <5 | <6.5 |  |  | Cc1nc(-c2ccccc2)oc1-c1cnc2c(c1)CC(=O)N2 [Compound 360, 5-(4-methyl-2-phenyl-1,3-oxazol-5-yl)-1H,2H,3H-pyrrolo[2,3-b]pyridin-2-one] |
| >5 | <6.5 | < 75 | > 75 | CCC1(CC)CC(=O)c2cc(-c3nnc(-c4ccc5c(c4)nnn5C(C)C)s3)ccc2O1 [Compound 67, 2,2-diethyl-6-(5-(1-isopropyl-1H-benzo[d][1,2,3]triazol-5-yl)-1,3,4-thiadiazol-2-yl)chroman-4-one] |
| <5 | <6.5 |  |  | Brc1ccccc1-c1nc(-c2ccc3c(c2)nnn3Cc2ccccc2)no1 [Compound 52, 3-(1-benzyl-1H-benzo[d][1,2,3]triazol-5-yl)-5-(2-bromophenyl)-1,2,4-oxadiazole] |
| >5 | <6.5 |  |  | CCC1(CC)CC(=O)c2cc(-c3nc(-c4ccc(S(=O)(=O)NC)cc4)no3)ccc2O1 [Compound 266, 4-(5-(2,2-diethyl-4-oxochroman-6-yl)-1,2,4-oxadiazol-3-yl)-N-methylbenzenesulfonamide] |
| <5 | <6.5 |  |  | CC(C)n1nnc2cc(-c3noc(-c4ncccc4O)n3)ccc21 [Compound 602, 2-{3-[1-(propan-2-yl)-1H-1,2,3-benzotriazol-5-yl]-1,2,4-oxadiazol-5-yl}pyridin-3-ol] |
| <5 | <6.5 |  |  | CC(C)n1nnc2cc(-c3nc4cccc(Br)c4o3)ccc21 [Compound 429, 7-bromo-2-(1-isopropyl-1H-benzo[d][1,2,3]triazol-5-yl)benzo[d]oxazole] |
| <5 | <6.5 | < 75 | < 75 | Brc1ccccc1-c1nc(-c2ccc3c(c2)nnn3Cc2cccnc2)no1 [Compound 283, 5-(2-bromophenyl)-3-(1-(pyridin-3-ylmethyl)-1H-benzo[d][1,2,3]triazol-5-yl)-1,2,4-oxadiazole] |
| <5 | <6.5 |  |  | Cc1ccc(-c2noc(-c3ccc4c(c3)nnn4C3CCCC3)n2)s1 [Compound 192, 1-cyclopentyl-5-[3-(5-methylthiophen-2-yl)-1,2,4-oxadiazol-5-yl]-1H-1,2,3-benzotriazole] |
| >5 | <6.5 |  |  | CC(C)n1nnc2cc(-c3cc(-c4ccccc4)n(C)c3)ccc21 [Compound 544, 5-(1-methyl-5-phenyl-1H-pyrrol-3-yl)-1-(propan-2-yl)-1H-1,2,3-benzotriazole] |
| <5 | <6.5 |  |  | Cc1nccnc1-c1nc(-c2ccc3c(c2)nnn3CC(C)(C)CO)no1 [Compound 540, 2,2-dimethyl-3-(5-(5-(3-methylpyrazin-2-yl)-1,2,4-oxadiazol-3-yl)-1H-benzo[d][1,2,3]triazol-1-yl)propan-1-ol] |
| <5 | <6.5 | < 75 | < 75 | Cc1cc(C)cc(Cc2noc(-c3ccc4c(c3)nnn4C(C)C)n2)c1 [Compound 126, 5-{3-[(3,5-dimethylphenyl)methyl]-1,2,4-oxadiazol-5-yl}-1-(propan-2-yl)-1H-1,2,3-benzotriazole] |
| <5 | >6.5 | < 75 | < 75 | CC(C)Nc1ccc(-c2ccc(-c3ccc4c(c3)nnn4C(C)C)cc2)cc1C#N [Compound 507, 4′-(1-isopropyl-1H-benzo[d][1,2,3]triazol-5-yl)-4-(isopropylamino)-[1,1′-biphenyl]-3-carbonitrile] |
| <5 | <6.5 |  |  | CCC1(CC)CC(=O)c2cc(-c3nc(-c4cnc[nH]4)no3)ccc2O1 [Compound 466, 6-(3-(1H-imidazol-5-yl)-1,2,4-oxadiazol-5-yl)-2,2-diethylchroman-4-one] |
| >5 | >6.5 |  |  | CC(C)n1nnc2cc(-c3noc(-c4ccccc4Br)n3)ccc21 [Compound 43, 5-(2-bromophenyl)-3-(1-isopropyl-1H-benzo[d][1,2,3]triazol-5-yl)-1,2,4-oxadiazole] |
| >5 | >6.5 | < 75 | > 75 | Cc1ccc2oc(-c3ccc4c(c3)nnn4CC(C)C)nc2c1 [Compound 437, 2-(1-isobutyl-1H-benzo[d][1,2,3]triazol-5-yl)-5-methylbenzo[d]oxazole] |
| >5 | >6.5 | > 75 | > 75 | Cc1ccccc1-c1coc(-c2ccc3c(c2)nnn3C(C)C)n1 [Compound 433, 5-[4-(2-methylphenyl)-1,3-oxazol-2-yl]-1-(propan-2-yl)-1H-1,2,3-benzotriazole] |
| <5 | <6.5 | > 75 | < 75 | CCc1ccccc1-c1nc(-c2ccc3c(c2)nnn3C(C)(C)CO)no1 [Compound 624, 2-(5-(5-(2-ethylphenyl)-1,2,4-oxadiazol-3-yl)-1H-benzo[d][1,2,3]triazol-1-yl)-2-methylpropan-1-ol] |
| <5 | <6.5 |  |  | CCC1(CC)CC(=O)c2cc(-c3nc(-c4ccncn4)no3)ccc2O1 [Compound 639, 2,2-diethyl-6-(3-(pyrimidin-4-yl)-1,2,4-oxadiazol-5-yl)chroman-4-one] |
| >5 | >6.5 | > 75 | > 75 | N#Cc1cc(-c2nnc(-c3ccc4[nH]cnc4c3)o2)ccc1NCC1CC1 [Compound 357, 5-[5-(1H-1,3-benzodiazol-5-yl)-1,3,4-oxadiazol-2-yl]-2-[(cyclopropylmethyl)amino]benzonitrile] |
| <5 | <6.5 | < 75 | < 75 | COc1cccc(-c2nc(-c3ccc4c(c3)nnn4C3CCCC3)no2)c1 [Compound 130, 3-(1-cyclopentyl-1H-benzo[d][1,2,3]triazol-5-yl)-5-(3-methoxyphenyl)-1,2,4-oxadiazole] |
| >5 | >6.5 | > 75 | < 75 | COc1cccnc1-c1nc(-c2ccc3c(c2)nnn3C(C)C)no1 [Compound 612, 3-(1-isopropyl-1H-benzo[d][1,2,3]triazol-5-yl)-5-(3-methoxypyridin-2-yl)-1,2,4-oxadiazole] |
